Where a name gives a salt, the structure may show the parent alone.
System: hair cells
Experiment: Hair cell toxicity assay in zebrafish (neomycin-induced hair cell death, DASPEI staining of neuromasts)
Assay type: in vivo
Settings: Danio rerio; for Emax at 25 µM: maximum observed @ 25 μM test compound; for EC50: zebrafish larvae 5-7 dpf, 1 h pre-treatment, then 200 micromolar neomycin + test compound 30 min, read-out: HC50 (concentration that would produce 50% hair cell survival); for Emax at 8.3 µM: maximum observed @ 8.3 μM test compound; for Emax at 2.8 µM: maximum observed @ 2.8 μM test compound
How it was run: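 Hair cell survival, as % of untreated controls, came from DASPEI scoring (0-2 each, ten neuromasts on one side) in 5-7 dpf larvae. These had 1 h compound pre-exposure (0.010-25 μM), then 200 μM neomycin with compound for 30 min. HCmax is peak protection; HC50 interpolated between flanking concentrations only when ≥50% survive.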

[1] = 200 micromolar neomycin, read-out: Max HC Protection (HCmax, % hair cell survival)

## C[N+]12CCCCC1Cc1c(sc(NC(=O)Nc3ccc(Cl)cc3)c1C(N)=O)C2 (racemic) [Example 177, (+/−)-3-Carbamoyl-2-[3-(4-chlorophenyl)ureido]-9-methyl-4,4a,5,6,7,8,9,10-octahydrothieno[3,2-b]quinolizin-9-ium iodide]
[1]
  Emax at 25 µM: 97%
  EC50: 1000 to 10000 nM

## CCN1CCc2c(sc(NC(=O)Nc3ccc(CC(=O)O)cc3)c2C(N)=O)C1 [Example 33, 2-{4-[3-(3-Carbamoyl-6-ethyl-4,5,6,7-tetrahydrothieno[2,3-c]pyridin-2-yl)ureido]phenyl}acetic acid trifluoroacetate]
Maximum observed @ 0.93 μM test compound, 200 micromolar neomycin, read-out: Max HC Protection (HCmax, % hair cell survival)
  Emax at 0.93 µM: 9%

## CC[N+]1(C)CCc2c(sc(NC(=O)Nc3ccc(C#N)cc3)c2C(N)=O)C1 (stereo not shown) [Example 150, 3-Carbamoyl-2-[3-(4-cyanophenyl)ureido]-6-ethyl-6-methyl-4,5,6,7-tetrahydrothieno[2,3-c]pyridin-6-ium iodide]
[1]
  Emax at 25 µM: 43%

## CC[N+]1(C)CCc2c(sc(NC(=O)Nc3ccc(Cl)cc3)c2C(=O)N2CCOCC2)C1 (stereo not shown) [Example 179, 2-[3-(4-Chlorophenyl)ureido]-6-ethyl-6-methyl-3-(morpholine-4-carbonyl)-4,5,6,7-tetrahydrothieno[2,3-c]pyridin-6-ium chloride]
[1]
  Emax at 8.3 µM: 38%

## CC(C)(C)OC(=O)CN1CCc2c(sc(NC(=O)Nc3ccc(Cl)cc3)c2C(N)=O)C1 [Example 58, tert-butyl 2-{3-carbamoyl-2-[3-(4-chlorophenyl)ureido]-4,5-dihydrothieno[2,3-c]pyridin-6(7H)-yl}acetate]
[1]
  Emax at 2.8 µM: 7%

## CC(C)NC(=O)CC[N+]1(C)CCc2c(sc(NC(=O)Nc3ccc(Cl)cc3)c2C(N)=O)C1 (stereo not shown) [Example 164, 3-Carbamoyl-2-[3-(4-chlorophenyl)ureido]-6-[3-(isopropylamino)-3-oxopropyl]-6-methyl-4,5,6,7-tetrahydrothieno[2,3-c]pyridin-6-ium trifluoroacetate]
[1]
  Emax at 2.8 µM: 60%
  EC50: 1000 to 10000 nM

## CC1(CN2CCc3c(sc(NC(=O)Nc4ccc(Cl)cc4)c3C(N)=O)C2)CC1 [Example 63, 2-[3-(4-Chlorophenyl)ureido]-6-[(1-methylcyclopropyl)methyl]-4,5,6,7-tetrahydrothieno[2,3-c]pyridine-3-carboxamide hydrochloride]
[1]
  Emax at 2.8 µM: 54%
  EC50: 1000 to 10000 nM

## CC[N+]1(CC2CCCCC2)CCc2c(sc(NC(=O)Nc3ccc(Cl)cc3)c2C(N)=O)C1 (stereo not shown) [Example 195, 3-Carbamoyl-2-[3-(4-chlorophenyl)ureido]-6-(cyclohexylmethyl)-6-ethyl-4,5,6,7-tetrahydrothieno[2,3-c]pyridin-6-ium trifluoroacetate]
Maximum observed @ 0.9 μM test compound, 200 micromolar neomycin, read-out: Max HC Protection (HCmax, % hair cell survival)
  Emax at 0.9 µM: 74%
  EC50: < 1000 nM

## CCN1CCc2c(sc(NC(=O)Nc3ccc(Cl)cc3)c2-c2nnco2)C1 [Example 104, 1-(4-chlorophenyl)-3-[6-ethyl-3-(1,3,4-oxadiazol-2-yl)-4,5,6,7-tetrahydrothieno[2,3-c]pyridin-2-yl]urea hydrochloride]
[1]
  Emax at 25 µM: 0%

## CCN1CCc2c(sc(NC(=O)Nc3ccc(OC)cc3)c2C(N)=O)C1 [Example 230, 6-ethyl-2-{[(4-methoxyphenyl)carbamoyl]amino}-4H,5H,6H,7H-thieno[2,3-c]pyridine-3-carboxamide]
[1]
  Emax at 25 µM: 48%

## C[N+]1(CC2CCC2)CCc2c(sc(NC(=O)Nc3ccc4ccccc4c3)c2C(N)=O)C1 (stereo not shown) [Example 176, 3-Carbamoyl-6-(cyclobutylmethyl)-6-methyl-2-[3-(naphthalen-2-yl)ureido]-4,5,6,7-tetrahydrothieno[2,3-c]pyridin-6-ium iodide]
[1]
  Emax at 8.3 µM: 100%
  EC50: < 1000 nM

## CN1C2CCC1c1sc(NC(=O)Nc3ccc(Cl)cc3)c(C(N)=O)c1C2 (single isomer, unassigned; (-)) [Example 127, (−)-2-[3-(4-chlorophenyl)ureido]-9-methyl-5,6,7,8-tetrahydro-4H-5,8-epiminocyclohepta[b]thiophene-3-carboxamide hydrochloride]
  EC50: 1000 to 10000 nM

## CC(C(=O)OC(C)(C)C)N1CCc2c(sc(NC(=O)Nc3ccc(Cl)cc3)c2C(N)=O)C1 (racemic) [Example 59, (+/−)-tert-Butyl 2-{3-carbamoyl-2-[3-(4-chlorophenyl)ureido]-4,5-dihydrothieno[2,3-c]pyridin-6(7H)-yl}propanoate]
[1]
  Emax at 8.3 µM: 40%

## CC(C)(C)OC(=O)CCC[N+]1(C)CCc2c(sc(NC(=O)Nc3ccc(Cl)cc3)c2C(N)=O)C1 (stereo not shown) [Example 154, 6-(4-tert-Butoxy-4-oxobutyl)-3-carbamoyl-2-[3-(4-chlorophenyl)ureido]-6-methyl-4,5,6,7-tetrahydrothieno[2,3-c]pyridin-6-ium trifluoroacetate]
[1]
  Emax at 2.8 µM: 96%
  EC50: < 1000 nM

## NC(=O)c1c(NC(=O)Nc2ccc(Cl)cc2)sc2c1CC[N+](CCCO)(CCCO)C2 [Example 201, 3-Carbamoyl-2-[3-(4-chlorophenyl)ureido]-6,6-bis(3-hydroxypropyl)-4,5,6,7-tetrahydrothieno[2,3-c]pyridin-6-ium chloride]
Maximum observed @ 2.5 μM test compound, 200 micromolar neomycin, read-out: Max HC Protection (HCmax, % hair cell survival)
  Emax at 2.5 µM: 102%
  EC50: < 1000 nM

## NC(=O)c1c(NC(=O)Nc2ccc(Cl)cc2)sc2c1CCN(C1CCOCC1)C2 [Example 5, 2-[3-(4-Chlorophenyl)ureido]-6-(tetrahydro-2H-pyran-4-yl)-4,5,6,7-tetrahydrothieno[2,3-c]pyridine-3-carboxamide hydrochloride]
[1]
  Emax at 8.3 µM: 89%
  EC50: 1000 to 10000 nM

## CC(C)(C)CN1CCc2c(sc(NC(=O)Nc3ccc4ccccc4c3)c2C(N)=O)C1 [Example 36, 2-[3-(Naphthalen-2-yl)ureido]-6-neopentyl-4,5,6,7-tetrahydrothieno[2,3-c]pyridine-3-carboxamide hydrochloride]
[1]
  Emax at 8.3 µM: 13%

## COCCCN1CCc2c(sc(NC(=O)Nc3ccc(Cl)cc3)c2C(N)=O)C1 [Example 3, 2-[3-(4-Chlorophenyl)ureido]-6-(3-methoxypropyl)-4,5,6,7-tetrahydrothieno[2,3-c]pyridine-3-carboxamide hydrochloride]
[1]
  Emax at 25 µM: 76%
  EC50: 1000 to 10000 nM

## CC(C)C[N+]1(C)CCc2c(sc(NC(=O)Nc3ccc(Cl)c4ccccc34)c2C(N)=O)C1 (stereo not shown) [Example 181, 3-Carbamoyl-2-[3-(4-chloronaphthalen-1-yl)ureido]-6-isobutyl-6-methyl-4,5,6,7-tetrahydrothieno[2,3-c]pyridin-6-ium iodide]
[1]
  Emax at 25 µM: 93%
  EC50: 1000 to 10000 nM

## CC(C)OC(=O)CC[N+]1(C)CCc2c(sc(NC(=O)Nc3ccc(Cl)cc3)c2C(N)=O)C1 (stereo not shown) [Example 159, 3-Carbamoyl-2-[3-(4-chlorophenyl)ureido]-6-(3-isopropoxy-3-oxopropyl)-6-methyl-4,5,6,7-tetrahydrothieno[2,3-c]pyridin-6-ium iodide]
[1]
  Emax at 2.8 µM: 84%
  EC50: < 1000 nM

## CCN1CCc2c(sc(NC(=O)Nc3cncc4ccccc34)c2C(N)=O)C1 [Example 81, 6-Ethyl-2-[3-(isoquinolin-4-yl)ureido]-4,5,6,7-tetrahydrothieno[2,3-c]pyridine-3-carboxamide dihydrochloride]
[1]
  Emax at 8.3 µM: 32%

## CC[N+]1(CC2CCC2)CCc2c(sc(NC(=O)Nc3ccc(Cl)cc3)c2C(N)=O)C1 (stereo not shown) [Example 190, 3-carbamoyl-2-[3-(4-chlorophenyl)ureido]-6-(cyclobutylmethyl)-6-ethyl-4,5,6,7-tetrahydrothieno[2,3-c]pyridin-6-ium chloride]
[1]
  Emax at 2.8 µM: 100%
  EC50: < 1000 nM

## CCN1CCc2c(sc(NC(=O)Nc3ccc(Cl)cc3Cl)c2C(N)=O)C1 [Example 229, 2-{[(2,4-dichlorophenyl)carbamoyl]amino}-6-ethyl-4H,5H,6H,7H-thieno[2,3-c]pyridine-3-carboxamide]
[1]
  Emax at 25 µM: 54%
  EC50: > 10000 nM

## CCN1CCc2c(sc(NC(=O)Nc3ccc(C)c(Cl)c3)c2C(N)=O)C1 [Example 83, 2-[3-(3-Chloro-4-methylphenyl)ureido]-6-ethyl-4,5,6,7-tetrahydrothieno[2,3-c]pyridine-3-carboxamide hydrochloride]
[1]
  Emax at 25 µM: 63%
  EC50: 1000 to 10000 nM

## NC(=O)c1c(NC(=O)Nc2ccc(Cl)cc2)sc2c1CCN(CCCNC(=O)CCc1cccc3ccccc13)C2 [Example 214, 2-{[(4-chlorophenyl)carbamoyl]amino}-6-{3-[3-(naphthalen-1-yl)propanamido]propyl}-4H,5H,6H,7H-thieno[2,3-c]pyridine-3-carboxamide]
[1]
  Emax at 2.8 µM: 95%
  EC50: < 1000 nM

## CC[N+]1(C)CCc2c(sc(NC(=O)Nc3ccc(Br)cc3)c2C(N)=O)C1 (stereo not shown) [Example 220, 2-{[(4-bromophenyl)carbamoyl]amino}-3-carbamoyl-6-ethyl-6-methyl-4H,5H,6H,7H-thieno[2,3-c]pyridin-6-ium]
[1]
  Emax at 25 µM: 98%
  EC50: < 1000 nM

## CC(C)C[N+]1(C)CCc2c(sc(NC(=O)Nc3ccc4ccccc4c3)c2C(N)=O)C1 (stereo not shown) [Example 175, 3-Carbamoyl-6-isobutyl-6-methyl-2-[3-(naphthalen-2-yl)ureido]-4,5,6,7-tetrahydrothieno[2,3-c]pyridin-6-ium iodide]
[1]
  Emax at 25 µM: 111%
  EC50: < 1000 nM

## CCN1CCc2c(sc(NC(=O)Nc3ccc(Cl)c(C)c3)c2C(N)=O)C1 [Example 64, 2-[3-(4-chloro-3-methylphenyl)ureido]-6-ethyl-4,5,6,7-tetrahydrothieno[2,3-c]pyridine-3-carboxamide hydrochloride]
[1]
  Emax at 25 µM: 77%
  EC50: 1000 to 10000 nM

— US9416141B2 (University of Washington through its Center for …, priority 2012, dated 2016)
